# Test results taken from ChEMBL document CHEMBL1201862, “PubChem BioAssay data set” (2004).
#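 Method: 48-hour compound exposure of cells in 96-well plates, five concentrations, linear interpolation of endpoints. Here, GI50 denotes the concentration required for 50% inhibition of growth.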 Active and inactive are the calls of the source. Rule as the data show it: active = GI50 up to about 1.1 µM and inactive = higher.
# Experiments:
# Experiment in all cases: NCI anticancer screen, dose series, 48 h
# XF498 = system: XF498
# RXF 393 = system: RXF 393
# NCI-H522 = system: NCI-H522
# A498 = system: A498
# DMS-273 = system: DMS-273
# NCI-H23 = system: NCI-H23
# UACC-62 = system: UACC-62
# SK-MEL-2 = system: SK-MEL-2
# HCC 2998 = system: HCC 2998
# SF-295 = system: SF-295
# NCI-H460 = system: NCI-H460
# HCT-15 = system: HCT-15
# SR = system: SR
# K562 = system: K562
# CCRF-CEM = system: CCRF-CEM
# MOLT-4 = system: MOLT-4
# M14 = system: M14
# SF-268 = system: SF-268
# HT-29 = system: HT-29
# EKVX = system: EKVX
# HL-60 = system: HL-60
# SN12C = system: SN12C
# SK-OV-3 = system: SK-OV-3
# HOP-92 = system: HOP-92
# UO-31 = system: UO-31
# DLD-1 = system: DLD-1
# KM-20L2 = system: KM-20L2
# LXFL 529 = system: LXFL 529
# NCI-H226 = system: NCI-H226
# COLO 205 = system: COLO 205
# HCT-116 = system: HCT-116
# UACC-257 = system: UACC-257
# IGROV-1 = system: IGROV-1
# RPMI-8226 = system: RPMI-8226
# OVCAR-5 = system: OVCAR-5
# CAKI-1 = system: CAKI-1
# HOP-18 = system: HOP-18
# SK-MEL-28 = system: SK-MEL-28
# 786-0 = system: 786-0
# HOP-62 = system: HOP-62
# SF-539 = system: SF-539
# M19-MEL = system: M19-MEL
# A549 = system: A549
# OVCAR-8 = system: OVCAR-8
# SK-MEL-5 = system: SK-MEL-5
# U-251 = system: U-251
# LOX IMVI = system: LOX IMVI
# SW-620 = system: SW-620
# DMS-114 = system: DMS-114
# ACHN = system: ACHN
# TK-10 = system: TK-10
# OVCAR-4 = system: OVCAR-4
# SNB-19 = system: SNB-19
# SNB-78 = system: SNB-78
# KM12 = system: KM12
# OVCAR-3 = system: OVCAR-3
# Malme-3M = system: Malme-3M
# SNB-75 = system: SNB-75
smiles,measurement,setting,value
Nc1c(Cl)ncnc1NCCCNc1ncnc(Cl)c1N,GI50,XF498,> 100 µM (inactive)
same,GI50,RXF 393,> 100 µM (inactive)
same,GI50,NCI-H522,69.3 µM (inactive)
same,GI50,A498,> 100 µM (inactive)
same,GI50,DMS-273,> 100 µM (inactive)
same,GI50,NCI-H23,53.8 µM (inactive)
same,GI50,UACC-62,> 100 µM (inactive)
same,GI50,SK-MEL-2,> 100 µM (inactive)
same,GI50,HCC 2998,> 100 µM (inactive)
same,GI50,SF-295,> 100 µM (inactive)
same,GI50,NCI-H460,> 100 µM (inactive)
same,GI50,HCT-15,> 100 µM
same,GI50,SR,> 100 µM (inactive)
same,GI50,K562,> 100 µM (inactive)
same,GI50,CCRF-CEM,> 100 µM (inactive)
same,GI50,MOLT-4,> 100 µM (inactive)
same,GI50,M14,> 100 µM (inactive)
same,GI50,SF-268,> 100 µM (inactive)
same,GI50,HT-29,> 100 µM (inactive)
same,GI50,EKVX,> 100 µM (inactive)
same,GI50,HL-60,> 100 µM (inactive)
same,GI50,SN12C,> 100 µM (inactive)
same,GI50,SK-OV-3,> 100 µM (inactive)
same,GI50,HOP-92,> 100 µM (inactive)
same,GI50,UO-31,95.3 µM (inactive)
same,GI50,DLD-1,> 100 µM (inactive)
same,GI50,KM-20L2,> 100 µM (inactive)
same,GI50,LXFL 529,> 100 µM (inactive)
same,GI50,NCI-H226,> 100 µM (inactive)
same,GI50,COLO 205,> 100 µM (inactive)
same,GI50,HCT-116,> 100 µM (inactive)
same,GI50,UACC-257,67 µM (inactive)
same,GI50,IGROV-1,> 100 µM (inactive)
same,GI50,RPMI-8226,> 100 µM (inactive)
same,GI50,OVCAR-5,> 100 µM (inactive)
same,GI50,CAKI-1,> 100 µM (inactive)
same,GI50,HOP-18,> 100 µM (inactive)
same,GI50,SK-MEL-28,> 100 µM (inactive)
same,GI50,786-0,> 100 µM (inactive)
same,GI50,HOP-62,> 100 µM (inactive)
same,GI50,SF-539,> 100 µM (inactive)
same,GI50,M19-MEL,> 100 µM (inactive)
same,GI50,A549,> 100 µM (inactive)
same,GI50,OVCAR-8,> 100 µM (inactive)
same,GI50,SK-MEL-5,> 100 µM (inactive)
same,GI50,U-251,> 100 µM (inactive)
same,GI50,LOX IMVI,> 100 µM (inactive)
same,GI50,SW-620,> 100 µM (inactive)
same,GI50,DMS-114,> 100 µM (inactive)
same,GI50,ACHN,> 100 µM (inactive)
same,GI50,TK-10,> 100 µM (inactive)
same,GI50,OVCAR-4,> 100 µM (inactive)
same,GI50,SNB-19,> 100 µM (inactive)
same,GI50,SNB-78,> 100 µM (inactive)
same,GI50,KM12,> 100 µM (inactive)
same,GI50,OVCAR-3,> 100 µM (inactive)
COc1cc(CNc2ccc(C(C)C)cc2)cc(OC)c1OC,GI50,XF498,32.3 µM (inactive)
same,GI50,RXF 393,0.693 µM (active)
same,GI50,A498,30.4 µM (inactive)
same,GI50,NCI-H23,20.1 µM (inactive)
same,GI50,UACC-62,16 µM (inactive)
same,GI50,SK-MEL-2,13 µM (inactive)
same,GI50,NCI-H460,13.4 µM (inactive)
same,GI50,HCT-15,16.9 µM
same,GI50,K562,8.57 µM (inactive)
same,GI50,CCRF-CEM,19 µM (inactive)
same,GI50,MOLT-4,22.4 µM (inactive)
same,GI50,SF-268,54.7 µM (inactive)
same,GI50,HT-29,16.9 µM (inactive)
same,GI50,EKVX,51.8 µM (inactive)
same,GI50,Malme-3M,19.5 µM (inactive)
same,GI50,SN12C,17.4 µM (inactive)
same,GI50,SK-OV-3,17.6 µM (inactive)
same,GI50,HOP-92,20.3 µM (inactive)
same,GI50,UO-31,20.2 µM (inactive)
same,GI50,DLD-1,24 µM (inactive)
same,GI50,KM-20L2,16.8 µM (inactive)
same,GI50,LXFL 529,18.9 µM (inactive)
same,GI50,HCT-116,11.5 µM (inactive)
same,GI50,UACC-257,25.8 µM (inactive)
same,GI50,IGROV-1,31 µM (inactive)
same,GI50,RPMI-8226,14.4 µM (inactive)
same,GI50,OVCAR-5,24.8 µM (inactive)
same,GI50,HOP-18,34.1 µM (inactive)
same,GI50,SK-MEL-28,27 µM (inactive)
same,GI50,786-0,15.4 µM (inactive)
same,GI50,HOP-62,23.9 µM (inactive)
same,GI50,SF-539,20.3 µM (inactive)
same,GI50,M19-MEL,17.1 µM (inactive)
same,GI50,A549,13 µM (inactive)
same,GI50,OVCAR-8,28 µM (inactive)
same,GI50,SK-MEL-5,14.7 µM (inactive)
same,GI50,U-251,15.4 µM (inactive)
same,GI50,LOX IMVI,16.2 µM (inactive)
same,GI50,DMS-114,24.9 µM (inactive)
same,GI50,ACHN,21.8 µM (inactive)
same,GI50,TK-10,47.4 µM (inactive)
same,GI50,OVCAR-4,25.3 µM (inactive)
same,GI50,SNB-19,29.6 µM (inactive)
same,GI50,SNB-75,23.7 µM (inactive)
same,GI50,SNB-78,35.1 µM (inactive)
same,GI50,KM12,18.5 µM (inactive)
NCCNCCNCc1c2ccccc2c(CNCCNCCN)c2ccccc12,GI50,XF498,72.9 µM (inactive)
same,GI50,RXF 393,40.9 µM (inactive)
same,GI50,NCI-H23,> 100 µM (inactive)
same,GI50,UACC-62,34 µM (inactive)
same,GI50,SK-MEL-2,> 100 µM (inactive)
same,GI50,HCC 2998,54 µM (inactive)
same,GI50,SF-295,41.4 µM (inactive)
same,GI50,NCI-H460,31.2 µM (inactive)
same,GI50,HCT-15,> 100 µM
same,GI50,SR,31.3 µM (inactive)
same,GI50,K562,25.4 µM (inactive)
same,GI50,CCRF-CEM,78.5 µM (inactive)
same,GI50,MOLT-4,36.5 µM (inactive)
same,GI50,M14,> 100 µM (inactive)
same,GI50,SF-268,69.5 µM (inactive)
same,GI50,HT-29,40.2 µM (inactive)
same,GI50,EKVX,> 100 µM (inactive)
same,GI50,HL-60,46.1 µM (inactive)
same,GI50,Malme-3M,84.9 µM (inactive)
same,GI50,SN12C,58.2 µM (inactive)
same,GI50,SK-OV-3,> 100 µM (inactive)
same,GI50,HOP-92,22.3 µM (inactive)
same,GI50,UO-31,> 100 µM (inactive)
same,GI50,DLD-1,> 100 µM (inactive)
same,GI50,KM-20L2,41.4 µM (inactive)
same,GI50,LXFL 529,57.8 µM (inactive)
same,GI50,NCI-H226,50.1 µM (inactive)
same,GI50,COLO 205,52.1 µM (inactive)
same,GI50,HCT-116,38 µM (inactive)
same,GI50,UACC-257,> 100 µM (inactive)
same,GI50,IGROV-1,75 µM (inactive)
same,GI50,RPMI-8226,29.6 µM (inactive)
same,GI50,OVCAR-5,> 100 µM (inactive)
same,GI50,CAKI-1,> 100 µM (inactive)
same,GI50,HOP-18,49.8 µM (inactive)
same,GI50,SK-MEL-28,> 100 µM (inactive)
same,GI50,786-0,38.6 µM (inactive)
same,GI50,HOP-62,60.3 µM (inactive)
same,GI50,SF-539,37.5 µM (inactive)
same,GI50,M19-MEL,59 µM (inactive)
same,GI50,A549,79.3 µM (inactive)
same,GI50,OVCAR-8,47.9 µM (inactive)
same,GI50,SK-MEL-5,> 100 µM (inactive)
same,GI50,U-251,51.6 µM (inactive)
same,GI50,LOX IMVI,70.6 µM (inactive)
same,GI50,SW-620,90.4 µM (inactive)
same,GI50,DMS-114,46.9 µM (inactive)
same,GI50,ACHN,> 100 µM (inactive)
same,GI50,TK-10,> 100 µM (inactive)
same,GI50,OVCAR-4,41.6 µM (inactive)
same,GI50,SNB-78,98.6 µM (inactive)
same,GI50,KM12,40.4 µM (inactive)
same,GI50,OVCAR-3,> 100 µM (inactive)
